Data as given in patent US9889146B2, “Benzoxaborole compounds and uses thereof” (priority 2012, dated 2018).
Values after ≈ are worked out from the molar mass of the structure shown. Read-outs that look alike come from different tables or passages of the source.

Assays:
[1] = test system: Morganella morganii (AmpC); assay: microbe, parasite or virus in culture; type: cell-based; conditions: Morganella morganii
[2] = test system: Enterobacter aerogenes (WT); assay: microbe, parasite or virus in culture; type: cell-based; conditions: Klebsiella aerogenes; Enterobacter aerogenes (WT), 199 isolates; read-out: MIC90
[3] = test system: S. marcescens (AmpC); assay: microbe, parasite or virus in culture; type: cell-based; conditions: Serratia marcescens
[4] = test system: Providencia spp.(all); assay: microbe, parasite or virus in culture; type: cell-based; conditions: Providencia spp.(all), 68 isolates; read-out: MIC90
[5] = test system: Klebsiella spp. (WT); assay: microbe, parasite or virus in culture; type: cell-based; conditions: Klebsiella spp. (WT), 159 isolates; read-out: MIC90
[6] = test system: Enterobacter cloacae (AmpC); assay: microbe, parasite or virus in culture; type: cell-based; conditions: Enterobacter cloacae
[7] = test system: Klebsiella spp. (ESBL); assay: microbe, parasite or virus in culture; type: cell-based; conditions: Klebsiella
[8] = test system: Citrobacter freundii (AmpC); assay: microbe, parasite or virus in culture; type: cell-based; conditions: Citrobacter freundii
[9] = test system: Enterobacter aerogenes (AmpC); assay: microbe, parasite or virus in culture; type: cell-based; conditions: Klebsiella aerogenes
[10] = test system: E. coli (ESBL); assay: microbe, parasite or virus in culture; type: cell-based; conditions: Escherichia coli
[11] = test system: Enterobacter cloacae (WT); assay: microbe, parasite or virus in culture; type: cell-based; conditions: 202 isolates, read-out: MIC90
[12] = test system: Enterobacteriaceae; assay: organism not typed; type: cell-based; conditions: Enterobacteriaceae, 2029 isolates; read-out: MIC90
[13] = test system: Proteus vulgaris (WT); assay: microbe, parasite or virus in culture; type: cell-based; conditions: Proteus vulgaris (WT), 41 isolates; read-out: MIC90
[14] = test system: Proteus mirabilis (WT); assay: microbe, parasite or virus in culture; type: cell-based; conditions: Proteus mirabilis (WT), 235 isolates; read-out: MIC90
[15] = test system: Klebsiella spp. (KPC); assay: microbe, parasite or virus in culture; type: cell-based; conditions: Klebsiella
[16] = test system: K. pneumoniae; conditions: up regulation of an AcrAB efflux pump; Ruzin et al. AAC 2005; cited from earlier work
[17] = test system: E. coli (WT); assay: microbe, parasite or virus in culture; type: cell-based; conditions: Escherichia coli; E. coli (WT), 214 isolates; read-out: MIC90
[18] = test system: P. aeruginosa ATCC 27853 wild type and mutants; assay: MIC, wild type and GSK2251052 resistant mutants; type: cell-based; conditions: Pseudomonas aeruginosa
Summary of the method: (§1)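 MICs were determined following CLSI M7-A7 recommendations for aerobic bacteria. Strains were E. coli ATCC 25922, K. pneumoniae ATCC 13883, P. aeruginosa ATCC 27853 and six to ten laboratory-selected GSK2251052-resistant colonies of each, carrying mutations in the LeuRS editing domain.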

[19] = test system: E. coli ATCC 25922 wild type and mutants; assay: MIC, wild type and GSK2251052 resistant mutants; type: cell-based; conditions: Escherichia coli
Summary of the method: as §1

[20] = test system: K. pneumoniae ATCC 13883 wild type and mutants; assay: MIC, wild type and GSK2251052 resistant mutants; type: cell-based; conditions: Klebsiella pneumoniae
Summary of the method: as §1

[21] = test system: P. aeruginosa ATCC 27853; assay: Spontaneous frequency of resistance; type: cell-based; conditions: 24 h
Description: (§2) Spontaneous Resistance Frequency was determined in vitro for GSK2251052 and the resistance mutants in E. coli ATCC 25922, K. pneumoniae ATCC 13883, and P. aeruginosa ATCC 27853 strains were characterized. GSK2251052 was prepared as described in U.S. Pat. No. 7,816,344 (the entire contents of which are hereby incorporated by reference herein). LB broth, Mueller Hinton II broth (adjusted), and Difco noble agar were obtained from Becton Dickinson (Cockeysville, Md., USA). M9 minimal broth containing 1×M9 salt, 0.5 μg/ML thiamine, 1 mM MgSO4, 0.1 mM CaCl2, 2% glucose, was obtained from Teknova (Hollister, Calif., USA). Antibacterial agents ciprofloxacin, ceftazidime, chloramphenicol, gentamycin, kanamycin, polymixin B, tobramycin and trimethoprim, and amino acids were obtained from Sigma Chemicals (St. Louis, Mo., USA). Strains were obtained from ATCC (Manassas, Va., USA).
(§3) Selection of resistance to GSK2251052 was attempted by spreading various amounts of bacteria onto MHBII noble agar plates containing 4×MIC (minimum inhibitory concentration) or 10×MIC of GSK2251052. Colonies were counted after 24 hours and 48 hours incubation at 37° C. The resistance of these colonies was confirmed by their ability to grow on plates containing GSK2251052 at either 4× or 10×MIC. Frequency of resistance was determined by dividing the number of resistant mutants by the total number of cells plated as determined by plating dilutions of the overnight culture on LB plates.

[22] = test system: E. coli ATCC 25922; assay: Spontaneous frequency of resistance; type: cell-based; conditions: 24 h
Description: as §2, §3

[23] = test system: K. pneumoniae ATCC 13883; assay: Spontaneous frequency of resistance; type: cell-based; conditions: 24 h
Description: as §2, §3

[24] = test system: P. aeruginosa; assay: In vitro activity against P. aeruginosa clinical isolates; type: cell-based; conditions: P. aeruginosa, 2,008 clinical isolates; GSK2251052 based on potential susceptible breakpoint of ≦4 μg/mL
Description: GSK2251052 was tested for activity against P. aeruginosa, and its activity was compared to other antibiotics of known activity. The results are shown below in Tables 2a and 2b. Of 2,008 clinical isolates tested (from 2009-2010 subjects, of which 40% were from North America) greater than 90% were susceptible to GSK2251052 based on a potential susceptible breakpoint of ≦4 μg/mL.

[25] = test system: E. coli ATCC 25922, K. pneumoniae ATCC 13883 and P. aeruginosa ATCC 27853; assay: MIC, three strains and their mutants summarised; type: cell-based; conditions: MIC in E. coli, P. aeruginosa and K. pneumoniae mutants versus wild-type
Description: as §2
Susceptibility tests were performed following the recommendations for aerobic bacteria (M7-A7) from the Clinical and Laboratories Standards Institute (CLSI).
Laboratory generated mutants resistant to GSK2251052 contain mutations in the editing domain of LeuRS. Six to ten GSK2251052 resistant colonies of E. coli ATCC 25922, K. pneumoniae ATCC 13883 and P. aeruginosa ATCC 27853 were selected for further analysis and their MICs to GSK2251052 were determined (Table 4-7).
GSK2251052 resistant mutants were not cross-resistant to commercial antibiotics.

## CN(C)c1cc(NC(=O)CNC(C)(C)C)c(O)c2c1C[C@H]1C[C@H]3[C@H](N(C)C)C(O)=C(C(N)=O)C(=O)[C@@]3(O)C(O)=C1C2=O [Tigecycline]
[1]
  MIC90: 4 mg/L (≈ 6.83 µM)
[2]
  MIC90: 0.5 mg/L (≈ 0.854 µM)
[3]
  MIC90: 2 mg/L (≈ 3.41 µM)
[4]
  MIC90: 4 mg/L (≈ 6.83 µM)
[5]
  MIC90: 1 mg/L (≈ 1.71 µM)
[6]
  MIC90: 4 mg/L (≈ 6.83 µM)
[7]
  MIC90: 2 mg/L (≈ 3.41 µM)
[8]
  MIC90: 2 mg/L (≈ 3.41 µM)
[9]
  MIC90: 2 mg/L (≈ 3.41 µM)
[10]
  MIC90: 0.5 mg/L (≈ 0.854 µM)
[11]
  MIC90: 0.5 mg/L (≈ 0.854 µM)
[12]
  MIC90: 2 mg/L (≈ 3.41 µM)
[13]
  MIC90: 2 mg/L (≈ 3.41 µM)
[14]
  MIC90: 4 mg/L (≈ 6.83 µM)
[15]
  MIC90: 2 mg/L (≈ 3.41 µM)
[16]
  phenotype of resistant mutants: multidrug-resistant
[17]
  MIC90: 0.25 mg/L (≈ 0.427 µM)

## CC(C)(O/N=C(\C(=O)N[C@@H]1C(=O)N2C(C(=O)[O-])=C(C[n+]3ccccc3)CS[C@H]12)c1csc(N)n1)C(=O)O [Ceftazidime]
[1]
  MIC90: > 16 mg/L
[18]; ATCC27853, P wt., read-out: MICs
  MIC: 2 mg/L (≈ 3.66 µM)
[18]; ATCC27853, read-out: MICs, mutant P 101
  MIC: 4 mg/L (≈ 7.32 µM)
[18]; ATCC27853, read-out: MICs, mutant P106
  MIC: 2 mg/L (≈ 3.66 µM)
[18]; ATCC27853, read-out: MICs, mutant P108
  MIC: 2 mg/L (≈ 3.66 µM)
[19]; ATCC25922, E wt, read-out: MICs
  MIC: 0.5 mg/L (≈ 0.915 µM)
[19]; ATCC25922, read-out: MICs, mutant E 101
  MIC: 0.5 mg/L (≈ 0.915 µM)
[19]; ATCC25922, read-out: MICs, mutant E 102
  MIC: 0.5 mg/L (≈ 0.915 µM)
[19]; ATCC25922, read-out: MICs, mutant E 107
  MIC: 0.5 mg/L (≈ 0.915 µM)
[20]; ATCC13883, K wt., read-out: MICs
  MIC: 0.5 mg/L (≈ 0.915 µM)
[20]; ATCC13883, read-out: MICs, mutant K 104
  MIC: 0.5 mg/L (≈ 0.915 µM)
[20]; ATCC13883, read-out: MICs, mutant K 105
  MIC: 0.5 mg/L (≈ 0.915 µM)
[20]; ATCC13883, read-out: MICs, mutant K 107
  MIC: 0.5 mg/L (≈ 0.915 µM)
[20]; ATCC13883, read-out: MICs, mutant K 108
  MIC: 1 mg/L (≈ 1.83 µM)
[20]; ATCC13883, read-out: MICs, mutant K 110
  MIC: 0.5 mg/L (≈ 0.915 µM)
[2]
  MIC90: ≤ 1 mg/L
[3]
  MIC90: > 16 mg/L
[4]
  MIC90: 8 mg/L (≈ 14.6 µM)
[5]
  MIC90: ≤ 1 mg/L
[6]
  MIC90: > 16 mg/L
[21]; 4 X MIC
  Frequency of Resistance: 2 × 10^−7
[21]; 10 X MIC
  Frequency of Resistance: 2 × 10^−8
[22]; 4 X MIC
  Frequency of Resistance: <3 × 10^−9
[22]; 10 X MIC
  Frequency of Resistance: <3 × 10^−9
[23]; 4 X MIC
  Frequency of Resistance: 1 × 10^−8
[23]; 10 X MIC
  Frequency of Resistance: <4 × 10^−9
[7]
  MIC90: > 16 mg/L
[8]
  MIC90: > 16 mg/L
[9]
  MIC90: > 16 mg/L
[10]
  MIC90: > 16 mg/L
[11]
  MIC90: ≤ 1 mg/L
[24]
  % susceptible: 66.4%
[12]
  MIC90: > 16 mg/L
[13]
  MIC90: ≤ 1 mg/L
[14]
  MIC90: ≤ 1 mg/L
[25]
  cross-resistance of GSK2251052 resistant mutants: did not have any significant difference in MIC values than wild-type
[15]
  MIC90: > 16 mg/L
[17]
  MIC90: ≤ 1 mg/L
